Values quoted from earlier work, collected in US6977083B1, “Bioadhesive tablet containing testosterone/testosterone ester mixtures and method for producing a predetermined testosterone time-release profile with same” (Jenapharm GmbH & Co. KG, priority 1998, dated 2005).

Settings: after oral or parenteral administration

In the case of C[C@]12CC[C@H]3[C@@H](CCC4=CC(=O)CC[C@@]43C)[C@@H]1CC[C@@H]2O [testosterone], the plasma half-life is given as “about 10 minutes”.
